Measured values published in patent publication US20240067672A1, “FLAVONE DERIVATIVE FOR TREATING TUMORS AND USE THEREOF” (SICHUAN FUSHENGYUAN TECHNOLOGY CO., LTD, priority 2019, published 2024).
Converted amounts (≈) assume the structure as drawn. Like-named read-outs stand apart in the source and are kept apart here.

Assays:
SMMC7721 hepatoma cells = assay: Anti-tumor activity in vitro, MTT method, SMMC7721; type: cell-based, human; conditions: for IC50: MTT; for IC50 compared with Icaritin, SMMC7721 72 h: SMMC7721, 72 h after administration
Experimental: (§1) The effects of Icaritin and its derivatives on the activities of HepG2 and SMMC7721 hepatoma cells were investigated by a MTT method. […] After reaction for 48, 7 2 h, each well was added with 20 μL 5 mg/mL, of MTT solution, and incubated in a cell incubator for 3-4 h. Then the liquid in the well plates was sucked to discard. Each well was added with 150 μL of dimethyl sulfoxide (DMSO), and shaken on an enzyme-labeled instrument for 30 s at ambient temperature so that the Formazan crystals were dissolved sufficiently. The absorbance value A of each well at 570 nm was detected by the enzyme-labeled instrument, and the experiment was repeated for 3 times.

HepG2 hepatoma cells = assay: Anti-tumor activity in vitro, MTT method, HepG2; type: cell-based, human; conditions: for IC50: MTT; for IC50 compared with Icaritin, HepG2 72 h: HepG2, 72 h after administration; for IC50 compared with Icaritin, 48 and 72 h: HepG2 and SMMC7721, 48 and 72 h
Experimental: as §1

[1] = Determination of solubility (HPLC); type: physicochemical; conditions: for solubility: 37 °C, thermodynamic from solid
Experimental: About 1.325 mg of Icaritin and the synthesized derivative were weighed and dissolved in 1.5 mL methanol respectively, then diluted with methanol into solutions of 10, 20, 50, 100, 150, 200, 500 μg/mL, and filtered over an organic-system filter head of 0.45 μm into sample bottles, obtaining the samples for test. Four parts of Icaritin and the synthesized derivative were weighed respectively, 1.00 mg for each part, and placed into 1.5 mL EP tubes, and 1 mL of water, normal saline, PBS, and 0.1% Tween 80 were respectively added thereto. The obtained solutions were ultrasonicated for 1 h, placed in a water bath at 37° C. overnight, and centrifuged at 10000 r/min for 3 min to collect supernatants. The supernatants were taken into sample bottles and detected by HPLC. The experiments were conducted in parallel for three times. The detection of HPLC is conducted under conditions of a chromatographic column of waters Symmetry C18, a mobile phase of a solution of methanol and water with a ratio of 80:20, a flow rate of 1.0 mL/min, a column temperature of 30° C., a detection wavelength of 210 nm, a run time of 30 min, and a sample load of 20 μL.

[2] = SMMC7721, 48 h, read-out: IC50 SMMC7721 48 h
[3] = SMMC7721, 72 h, read-out: IC50 SMMC7721 72 h
[4] = HepG2, 48 h, read-out: IC50 HepG2 48 h
[5] = HepG2, 72 h, read-out: IC50 HepG2 72 h
[6] = Homo sapiens, SMMC-7721, SMMC7721, 48 h, read-out: IC50 SMMC7721 48 h
[7] = Homo sapiens, SMMC-7721, SMMC7721, 72 h, read-out: IC50 SMMC7721 72 h
[8] = Homo sapiens, HepG2, 48 h, read-out: IC50 HepG2 48 h
[9] = Homo sapiens, HepG2, 72 h, read-out: IC50 HepG2 72 h
[10] = aqueous with cosolvent or surfactant or cyclodextrin

Structure (SMILES)	IC50 (SMMC7721 hepatoma cells; [2]) [µM]	IC50 (SMMC7721 hepatoma cells; [3]) [µM]	IC50 (HepG2 hepatoma cells; [4]) [µM]	IC50 (HepG2 hepatoma cells; [5]) [µM]	Solubility, 0.1% Tween 80 [1]	Solubility, Normal Saline [1]	Solubility, PBS [1]	Solubility, Water [1]	IC50 (SMMC7721 hepatoma cells; [6]) [µM]	IC50 (SMMC7721 hepatoma cells; [7]) [µM]	IC50 compared with Icaritin, HepG2 72 h (HepG2 hepatoma cells)	IC50 (HepG2 hepatoma cells; [8]) [µM]	IC50 (HepG2 hepatoma cells; [9]) [µM]	IC50 compared with Icaritin, SMMC7721 72 h (SMMC7721 hepatoma cells)	further results
COc1ccc(-c2oc3c(CC=C(C)C)c(O)cc(O)c3c(=O)c2OC(=O)CCC(=O)OCCOCc2cn(CCOC3OC(CO)C(O)C(O)C3O)nn2)cc1 (stereo not shown) [Compound 72]	> 100	> 100	> 100	> 100	5.697 ± 1.312 µg/mL (≈ 7.12 µM)	5.673 ± 1.031 µg/mL (≈ 7.09 µM)	5.656 ± 1.131 µg/mL (≈ 7.07 µM)	5.852 ± 0.748 µg/mL (≈ 7.32 µM)							
COc1ccc(-c2oc3c(CC=C(C)C)c(O)cc(O)c3c(=O)c2OC(=O)CCC(=O)OCCOCc2cn(CCOCCOC3OC(CO)C(O)C(O)C3O)nn2)cc1 (stereo not shown) [Compound 73]	> 100	37.2 ± 1.36	43.2 ± 1.21	36.8 ± 0.65	Insoluble	Insoluble	Insoluble	Insoluble							
COc1ccc(-c2oc3c(CC=C(C)C)c(O)cc(O)c3c(=O)c2OC(=O)CCC(=O)NCCCCCOCc2cn(C3O[C@H](CO)[C@@H](O)[C@H](O)[C@H]3O)nn2)cc1 (stereo partly shown) [Compound 81]					Insoluble	Insoluble	Insoluble	Insoluble	> 100	22.2 ± 1.45	less than that of Icaritin	> 100	12 ± 1.23		
COc1ccc(-c2oc3c(CC=C(C)C)c(O)cc(O)c3c(=O)c2OC(=O)CCC(=O)OCCCCOCc2cn(C3OC(CO)C(O)C(O)C3O)nn2)cc1 (stereo not shown) [Compound 87]	> 100	12.7 ± 1.02	> 100	7.03 ± 0.67							less than that of Icaritin			less than that of Icaritin	Solubility, 0.1% Tween 80 ([1]; 0.1% Tween 80, 37° C. overnight, n = 3): 1.358 ± 0.235 µg/mL (≈ 1.73 µM); Solubility, PBS ([1]; PBS, 37° C. overnight, n = 3): Insoluble; Solubility, Normal Saline ([1]; normal saline, 37° C. overnight, n = 3): 1.386 ± 0.743 µg/mL (≈ 1.77 µM); Solubility, Water ([1]; water, 37° C. overnight, n = 3): 1.277 ± 0.836 µg/mL (≈ 1.63 µM)
COc1ccc(-c2oc3c(CC=C(C)C)c(O)cc(O)c3c(=O)c2OC(=O)CCC(=O)OCCCCOCc2cn(CCOC3OC(CO)C(O)C(O)C3O)nn2)cc1 (stereo not shown) [Compound 88]	> 100	40.5 ± 1.56	> 100	> 100	8.384 ± 1.363 µg/mL (≈ 10.1 µM)	7.399 ± 0.384 µg/mL (≈ 8.94 µM)	Insoluble	7.597 ± 1.038 µg/mL (≈ 9.18 µM)							
COc1ccc(-c2oc3c(CC=C(C)C)c(O)cc(O)c3c(=O)c2OC(=O)CCC(=O)OCCCCOCc2cn(CCOCCOC3OC(CO)C(O)C(O)C3O)nn2)cc1 (stereo not shown) [Compound 89]	> 100	35.6 ± 1.36	> 100	> 100	Insoluble	Insoluble	Insoluble	Insoluble							
COc1ccc(-c2oc3c(CC=C(C)C)c(O)cc(O)c3c(=O)c2OC(=O)CCC(=O)OCCCOCc2cn(CCO[C@H]3O[C@@H](CO)[C@H](O)[C@@H](O)[C@@H]3O)nn2)cc1 [Compound 96]									29.7 ± 1.23	6.65 ± 1.29	less than that of Icaritin	12 ± 0.82	5.56 ± 0.8	less than that of Icaritin	IC50 compared with Icaritin, 48 and 72 h (HepG2 hepatoma cells): less than those of Icaritin; solubility compared with that of the bulk drug (Icaritin) [1]: improved effectively; solubility ([1]; aqueous buffer): 15.5 ± 1.31 µg/mL (≈ 19 µM); solubility [1, 10]: 16.8 ± 0.422 µg/mL (≈ 20.7 µM); solubility ([1]; saline or isotonic): 16.8 ± 0.313 µg/mL (≈ 20.7 µM); solubility ([1]; water): 16.9 ± 0.462 µg/mL (≈ 20.7 µM)
COc1ccc(-c2oc3c(CC=C(C)C)c(O)cc(O)c3c(=O)c2OC(=O)CCC(=O)OCCCOCc2cn(CCOCCOC3OC(CO)C(O)C(O)C3O)nn2)cc1 (stereo not shown) [Compound 97]	> 100	8.68 ± 0.52	> 100	> 100	6.123 ± 0.931 µg/mL (≈ 7.14 µM)	5.036 ± 1.031 µg/mL (≈ 5.87 µM)	5.031 ± 0.901 µg/mL (≈ 5.86 µM)	5.474 ± 0.394 µg/mL (≈ 6.38 µM)						less than that of Icaritin	
COc1ccc(-c2oc3c(CC=C(C)C)c(O)cc(O)c3c(=O)c2OC(=O)CCC(=O)OCCN(CCOCc2cn(CCO[C@@H]3O[C@H](CO)[C@@H](O)[C@H](O)[C@H]3O)nn2)c2ccccc2)cc1 [Compound 104]					Insoluble	Insoluble	Insoluble	Insoluble	> 100	12.9 ± 1.03	less than that of Icaritin	> 100	9.02 ± 0.27	less than that of Icaritin	
COc1ccc(-c2oc3c(CC=C(C)C)c(O)cc(O)c3c(=O)c2OC(=O)CCC(=O)OCCN(CCOCc2cn(CCOCCO[C@H]3O[C@@H](CO)[C@H](O)[C@@H](O)[C@@H]3O)nn2)c2ccccc2)cc1 [Compound 105]							Insoluble		> 100	9.57 ± 1.2	less than that of Icaritin	15.1 ± 1.32	7.69 ± 0.04	less than that of Icaritin	IC50 compared with Icaritin, 48 and 72 h (HepG2 hepatoma cells): less than those of Icaritin; solubility compared with that of the bulk drug (Icaritin) [1]: improved effectively; solubility [1, 10]: 23.4 ± 1.12 µg/mL (≈ 24.3 µM); solubility ([1]; saline or isotonic): 23.9 ± 0.982 µg/mL (≈ 24.9 µM); solubility ([1]; water): 23.6 ± 1.23 µg/mL (≈ 24.5 µM)
